Results from PMC9112336 (ACS infectious diseases, 2022).

Tests used:
Assay type in all cases: cell-based
[1] = test system: vesicular acidification in HEK293 cells
[2] = test system: mCherry-LAMP1 expressing HEK293 cells
[3] = test system: mCherry-LAMP1 expressing HEK293 cells; remark: listed apart in the source
[4] = test system: mCherry-LAMP1 expressing HEK293 cells; remark: listed apart in the source
[5] = test system: GFP-Rab5 expressing HEK293 cells
[6] = test system: endocytic vesicle pH in HEK293 cells

Q: Which “acidification activity after the 24 h washout period” value [1] does the source give for `COc1cc2c(O)c3c(c(-c4ccc5c(c4)OCO5)c2cc1OC)C(=O)OC3` [1.1, diphyllin] here?
A: The value was 90.2 ± 11.5%.

Q: And the “acidification activity, initial response (immediate post washout)” value [1]?
A: Its value is 57.5 ± 9.0%.

Q: `Cc1cccc(/C=N/Nc2cc(N3CCOCC3)nc(OCCc3ccccn3)n2)c1` [Apilimod, apilimod] was tested. Which “effect on LAMP1+ structures compared to DMSO” value [2] did it give?
A: The value was “significantly altered LAMP1 structures”.

Q: With `CO/C1=C\C(C)=C\[C@@H](C)[C@@H](O)[C@@H](C)C/C(C)=C/C=C/[C@H](OC)[C@@H]([C@@H](C)[C@@H](O)[C@H](C)[C@@]2(O)C[C@@H](O)[C@H](C)[C@@H](C(C)C)O2)OC1=O` [bafilomycin, bafilomycin A1] as the compound, how does the “average number of large, dilated vesicles per cell, treatment after apilimod” value [3] read?
A: The value was about 1.

Q: And the “average number of dilated vesicles >1 μm per cell, pre-treatment before apilimod” value [4]?
A: Its value is about 1.

Q: What about the “reversibility of inhibition of vesicular acidification” value [1] of the same compound?
A: The value was “full recovery of acridine orange pH-dependent shift to red was not observed”.

Q: What about the “average size of Rab5+ punctate vesicles” value [5] of the same compound?
A: The value was 400 nm.

Q: What about the “large (>1 μm) vesicle pHrodo fluorescence” value [6] of the same compound?
A: Its value is “significant decrease”.
